Measured values taken from patent US20250186448A1 (Mezzion Pharma Co., Ltd., priority 2021, published 2025).
Where “and” joins values, the source holds several entries; their conditions need not be identical. Equal entries are not always repeated. Entries after “also recorded” stand apart in the source; their conditions may differ.

System: adolescents with Fontan physiology
Experiment: FUEL trial: resting data and cardiopulmonary exercise test (CPET), cycle ergometer ramp protocol
Format: in vivo, human
Conditions: for Anaerobic threshold VE/VCO2 / Anaerobic threshold oxygen consumption / Anaerobic threshold work / Peak exercise heart rate / Peak exercise minute ventilation / Peak exercise oxygen consumption / Peak exercise oxygen saturation / Peak exercise respiratory rate / Peak exercise work rate / Resting diastolic blood pressure / Resting heart rate / Resting oxygen saturation / Resting systolic blood pressure: mean ± SD; for Resting oxygen saturation, change: p 0.002 vs placebo; for Resting diastolic blood pressure, change: p 0.003 vs placebo; for Anaerobic threshold VE/VCO2, change: p 0.011 vs placebo
Description: Exercise testing can include assessment of VO2 values during maximal effort or at the ventilator anaerobic threshold (VAT). VO2 max, or maximal oxygen consumption, refers to the maximum amount of oxygen that an individual can utilize during intense exercise. This measurement is generally considered a reliable indicator of cardiovascular fitness and aerobic endurance. The more oxygen a person can use during high level exercise, the more energy that person can produce. This test has been the standard for cardiorespiratory fitness because muscles need oxygen for prolonged (aerobic) exercise; blood carries oxygen to the muscles and the heart must pump adequate amounts of blood to meet the demands of aerobic exercise.
(§1) VO2 is often measured by putting a mask on a subject, and measuring the volume and gas concentrations of inhaled and expired air. This measurement is often used in both clinical settings and research and is considered the most accurate. Testing commonly involves either exercising on a treadmill or riding a cycle ergometer at increasing intensity until exhaustion, and is designed to provide readings at a maximal effort of the subject and/or at the subject's anaerobic threshold.
Exercise testing can include assessment of VO2 values during maximal effort or at ventilator anaerobic threshold (“VAT”). VO2 max (“peak VO2”), or maximal (“peak”) oxygen consumption, refers to the maximum amount of oxygen that an individual can utilize during intense exercise. This measurement is generally considered a reliable indicator of cardiovascular fitness and aerobic endurance. Theoretically, the more oxygen a person can use during exercise, the more energy that person can produce. This test is often used for cardiorespiratory fitness because muscles need oxygen for prolonged (aerobic) exercise; blood carries oxygen to the muscles and the heart must pump adequate amounts of blood to meet the demands of aerobic exercise. However, while peak VO2 may be useful as a surrogate for many cardiovascular disease states, it may not be as relevant an endpoint after the Fontan operation. In this unique physiology, central venous pressure, rather than right ventricular contraction (pumping), is the primary driver of transpulmonary blood flow and, therefore, cardiac output. Gewillig M and Goldberg D J. Failure of the fontan circulation. Heart Fail Clin. 10(1):105-116 (January 2014); Egbe A C, Connolly H M, Miranda W R, Ammash N M, Hagler D J, Veldtman G R and Borlaug B A. Hemodynamics of Fontan Failure: The Role of Pulmonary Vascular Disease. Circ Heart Fail. 10(12): e004515 (September 2017); Gewillig M, Brown S C, Eyskens B, Heying R, Ganame J, Budts W, La Gerche A and Gorenflo M. The Fontan circulation: who controls cardiac output?Interact Cardiovasc Thorac Surg. 10(3):428-433 (March 2010); and Goldberg D J, Avitabile C M, McBride M G and Paridon S M. Exercise capacity in the Fontan circulation. Cardiol Young. 23(6):824-830 (December 2013). As the demand for cardiac output increases with exertion, central venous pressure in the Fontan circulation must rise to meet that demand, but eventually reaches a critical ceiling beyond which it can rise no further. Navaratnam D, Fitzsimmons S, Grocott M, Rossiter H B, Emmanuel Y, Diller G P, Gordon-Walker T, Jack S, Sheron N, Pappachan J, Pratap J N, Vettukattil J J and Veldtman G. Exercise-Induced Systemic Venous Hypertension in the Fontan Circulation. Am J Cardiol. 117(10):1667-1671 (May 15, 2016).
as §1, with “research and has been considered the” for “research and is considered the”, “anaerobic threshold. […]” for “anaerobic threshold.”

[1] = 87.5 mg twice daily, Change baseline to 26-week
[2] = 87.5 mg twice daily, Change baseline to 26-week, listed as udenafil
[3] = 87.5 mg twice daily, baseline to 26-week

CCCOc1ccc(S(=O)(=O)NCCC2CCCN2C)cc1-c1nc2c(CCC)nn(C)c2c(=O)[nH]1 (stereo not drawn) [Udenafil, udenafil]
Multiple measures of exercise performance at the ventilatory anaerobic threshold, udenafil vs placebo (87.5 mg twice daily): statistically significant improvements | Anaerobic threshold VE/VCO2 (87.5 mg twice daily, 26-week): 33.6 ± 4.8 | Anaerobic threshold oxygen consumption (87.5 mg twice daily, 26-week): 1059 ± 292 mL/min | Anaerobic threshold work (87.5 mg twice daily, 26-week): 69.2 ± 26 W | Peak exercise heart rate (87.5 mg twice daily, 26-week): 165 ± 20 bpm | Peak exercise minute ventilation (87.5 mg twice daily, 26-week): 73 ± 22 L/min | Peak exercise oxygen consumption (87.5 mg twice daily, 26-week): 1606 ± 452 mL/min | Peak exercise oxygen saturation (87.5 mg twice daily, 26-week): 89.6 ± 4.9% | Peak exercise respiratory rate (87.5 mg twice daily, 26-week): 50 ± 12 breaths/min | Peak exercise work rate (87.5 mg twice daily, 26-week): 124 ± 32 W | Resting diastolic blood pressure (87.5 mg twice daily, 26-week): 65.3 ± 9.9 mmHg | Resting heart rate (87.5 mg twice daily, 26-week): 86.6 ± 15.4 bpm | Resting oxygen saturation (87.5 mg twice daily, 26-week): 93.3 ± 3.5% | Resting systolic blood pressure (87.5 mg twice daily, 26-week): 110.5 ± 12.0 mmHg | Anaerobic threshold VE/VCO2 (87.5 mg twice daily, Baseline): 34.3 ± 4.9 | Anaerobic threshold oxygen consumption (87.5 mg twice daily, Baseline): 1039 ± 301 mL/min | Anaerobic threshold work (87.5 mg twice daily, Baseline): 66.2 ± 26 W | Peak exercise heart rate (87.5 mg twice daily, Baseline): 165 ± 20 bpm | Peak exercise minute ventilation (87.5 mg twice daily, Baseline): 71 ± 21 L/min | Peak exercise oxygen consumption (87.5 mg twice daily, Baseline): 1562 ± 437 mL/min | Peak exercise oxygen saturation (87.5 mg twice daily, Baseline): 89.2 ± 5.3% | Peak exercise respiratory rate (87.5 mg twice daily, Baseline): 51 ± 11 breaths/min | Peak exercise work rate (87.5 mg twice daily, Baseline): 120 ± 32 W | Resting diastolic blood pressure (87.5 mg twice daily, Baseline): 68.4 ± 9.5 mmHg | Resting heart rate (87.5 mg twice daily, Baseline): 87.5 ± 15.3 bpm | Resting oxygen saturation (87.5 mg twice daily, Baseline): 92.8 ± 3.9% | Resting systolic blood pressure (87.5 mg twice daily, Baseline): 112.3 ± 12.1 mmHg | Resting oxygen saturation, change [1]: 0.5 ± 2.4% | Resting oxygen saturation, change [2]: +0.5% | Resting diastolic blood pressure, change [1]: −2.9 ± 9.7 mmHg | Resting diastolic blood pressure, change [2]: −2.9 mmHg | Anaerobic threshold VE/VCO2, change [1]: −0.76 ± 3.6^ | Anaerobic threshold VE/VCO2, change [2]: −0.8 | Anaerobic threshold oxygen consumption (VO2 at VAT), change (87.5 mg twice daily, Change baseline to 26-week, p 0.023 vs placebo): 29.7 ± 177 mL/min | Anaerobic threshold work (work rate at VAT), change (87.5 mg twice daily, Change baseline to 26-week, p 0.029 vs placebo): 3.5 ± 15 W | Peak exercise oxygen consumption (peak VO2, VO2 max), change (87.5 mg twice daily, Change baseline to 26-week, p 0.071 vs placebo): 44 ± 245 mL/min | Resting systolic blood pressure, change (87.5 mg twice daily, Change baseline to 26-week, p 0.18 vs placebo): −1.8 ± 12.2 mmHg | Resting heart rate, change (87.5 mg twice daily, Change baseline to 26-week, p 0.78 vs placebo): −0.9 ± 12.7 bpm | Peak exercise work rate, change (87.5 mg twice daily, Change baseline to 26-week, p 0.85 vs placebo): 3.2 ± 14 W | VE/VCO2 measured at VAT, decreased by, percent [3]: 2.1% | Work rate at VAT improved by, percent [3]: 5.5% and 5.2% | Change in resting heart rate, respiratory rate, or systolic blood pressure, udenafil vs placebo (baseline to 26-week): no difference | Diastolic blood pressure in the udenafil group, in words (baseline to 26-week): small but statistically significant decrease | Resting oxygen saturation in the udenafil group, in words (baseline to 26-week): small but statistically significant increase | Oxygen consumption at peak exercise (peak VO2), difference udenafil vs placebo (p=0.071): did not reach statistical significance; also recorded: not associated with a statistically significant improvement
